{
  "source": "paper PMC3526545",
  "about": "“New perspectives for natural antimicrobial peptides: application as antinflammatory drugs in a murine model” (BMC Immunology, 2012)",
  "key": {"[1]": {"tested_on": "Staphylococcus epidermidis strains", "assay": "Antibacterial activity of AMPs (MIC100) and synergism (FIC index)", "type": "cell-based", "details": "against Staphylococcus epidermidis strains, single agent", "method": "(§1) Antibacterial activity of the peptides used in this work was evaluated as described previously. […] The fractional inhibitory concentration (FIC) index for combinations of two peptides was calculated according to the equation: FIC index = […] = A/MICA + B/MICB , where A and B are the MICs of drug A and drug B in the combination, MICA and MICB are the MICs of drug A and drug B alone, and FICA and FICB are the FICs of drug A and drug B. The FIC indices were interpreted as follows: ≤0.5, synergy; 0.51-4.0, no interaction; > 4.0, antagonism."}, "[2]": {"tested_on": "Staphylococcus epidermidis strains", "assay": "% inhibition of bacterial growth by the MIX and its components", "type": "cell-based", "details": "MIX = both", "method": "as §1, with “antagonism. The growth inhibition percentages of Staphylococcus epidermidis and probiotic strains were assessed under the same conditions.” for “antagonism.”"}, "J774 cells": {"tested_on": "J774 cells", "assay": "Nitrite (NO2-) formation in J774 cells, Griess reaction", "type": "cell-based, mouse"}},
  "note": "“And” between values parts separate entries of the source, which are not always exact repeats. Equal entries are not always repeated.",
  "data": [
    {"substance": "KKYLLPI VGNLLKSLL-NH2 [TB-KK, analogue of the temporin B]", "values": [
      {"measurement": "MIC100", "setting": "[1]; 10^5 CFU/well", "value": 7, "unit": "µg/mL"},
      {"measurement": "MIC", "setting": "[1]; value in brackets", "value": 3, "unit": "µM"},
      {"measurement": "% inhibition of bacterial growth", "setting": "[2]; strain 2/2, RJI-C 9 μg/ml, TB-KK 6 μg/ml", "value": "23 ± 0.5", "unit": "%"},
      {"measurement": "% inhibition of bacterial growth", "setting": "[2]; strain 3/28, RJI-C 9 μg/ml (7.3 μM), TB-KK 6 μg/ml (2.6 μM)", "value": "19 ± 2", "unit": "%"},
      {"measurement": "% inhibition of bacterial growth", "setting": "[2]; strain 5/6, RJI-C 9 μg/ml, TB-KK 6 μg/ml", "value": "10 ± 1", "unit": "%"},
      {"measurement": "% inhibition of bacterial growth", "setting": "[2]; strain 5/8, RJI-C 9 μg/ml, TB-KK 6 μg/ml", "value": "21 ± 2", "unit": "%"},
      {"measurement": "% inhibition of bacterial growth", "setting": "[2]; strain 5/25, RJI-C 9 μg/ml, TB-KK 6 μg/ml", "value": "21 ± 1", "unit": "%"},
      {"measurement": "% inhibition of bacterial growth", "setting": "[2]; strain 9/1, RJI-C 9 μg/ml, TB-KK 6 μg/ml", "value": "26 ± 2", "unit": "%"},
      {"measurement": "% inhibition of bacterial growth", "setting": "[2]; strain 10/28, RJI-C 9 μg/ml, TB-KK 6 μg/ml", "value": "4 ± 1", "unit": "%"},
      {"measurement": "% inhibition of bacterial growth", "setting": "[2]; strain 12/14, RJI-C 9 μg/ml, TB-KK 6 μg/ml", "value": "20 ± 3", "unit": "%"},
      {"measurement": "% inhibition of bacterial growth", "setting": "[2]; strain 12/26, RJI-C 9 μg/ml, TB-KK 6 μg/ml", "value": "14 ± 2", "unit": "%"},
      {"measurement": "NO2- production of J774 cells", "setting": "J774 cells", "value": "0.82 ± 0.05 μmol/10^6 cells and 1.25 ± 0.2 μmol/10^6 cells and 1.34 ± 0.2 μmol/10^6 cells"},
      {"measurement": "NO2- synthesis in LPS-stimulated J774 cells, in words", "setting": "J774 cells", "value": "reduced NO2^- synthesis"}
    ]}
  ]
}
